We go through 27 compounds from EP2970215B1, “PYRROLIDINE DERIVATIVES, PHARMACEUTICAL COMPOSITIONS CONTAINING THEM, AND THEIR USE IN THERAPY” (AbbVie Deutschland GmbH & Co. KG, priority 2013, dated 2014).

Bounds are passed on as bounds.

The first experiment addresses T1, human GlyT1c transporter (Homo sapiens, UniProt P48067).
T1 construct: expressed in transfected cells; host or cells: CHO cells (recombinant; line hGlyT1c_5_CHO is named for the uptake assay)
T1 sequence (P48067 1-706): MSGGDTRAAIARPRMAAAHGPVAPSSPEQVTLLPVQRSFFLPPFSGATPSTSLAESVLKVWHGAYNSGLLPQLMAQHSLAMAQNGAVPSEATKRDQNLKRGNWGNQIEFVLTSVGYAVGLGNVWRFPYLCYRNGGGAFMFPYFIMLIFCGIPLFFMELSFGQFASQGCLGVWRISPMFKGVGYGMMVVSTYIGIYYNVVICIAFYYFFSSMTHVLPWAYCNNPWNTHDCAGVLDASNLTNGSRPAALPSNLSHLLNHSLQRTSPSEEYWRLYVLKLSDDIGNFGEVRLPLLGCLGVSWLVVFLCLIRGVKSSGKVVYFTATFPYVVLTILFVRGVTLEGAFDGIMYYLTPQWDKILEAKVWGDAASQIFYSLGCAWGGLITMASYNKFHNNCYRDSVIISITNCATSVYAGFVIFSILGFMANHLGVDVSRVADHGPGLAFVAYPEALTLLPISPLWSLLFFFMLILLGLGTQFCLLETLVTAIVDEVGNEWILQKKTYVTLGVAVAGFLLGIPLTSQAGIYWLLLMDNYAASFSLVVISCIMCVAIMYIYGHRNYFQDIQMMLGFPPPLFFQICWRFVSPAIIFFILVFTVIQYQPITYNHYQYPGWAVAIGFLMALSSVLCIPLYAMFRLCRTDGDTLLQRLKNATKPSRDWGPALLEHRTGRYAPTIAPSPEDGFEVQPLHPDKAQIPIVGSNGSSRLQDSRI
In words: Radioligand binding assay using recombinant CHO cell membranes expressing human GlyT1. The conditions noted are these: radioligand binding to human GlyT1c transporter-expressing membranes. The source says: 2. Radioligand binding assays using recombinant CHO cell membranes expressing human GlyT1: […]
One may read the Ki as the dissociation constant of the complex between target and ligand, obtained from inhibition or displacement. On to `Cn1cnc(S(=O)(=O)N2C[C@@H](NCc3ccc(C(F)(F)F)cc3Cl)[C@H](c3ccccc3)C2)c1` [Example 395, (3S,4R)-N-[2-chloro-4-(trifluoromethyl)benzyl]-1-[(1-methyl-1H-imidazol-4-yl)sulfonyl]-4-phenylpyrrolidin-3-amine], for which the Ki is ≤ 1000 nM. With `Cn1cnc(S(=O)(=O)N2C[C@@H](CNc3cc(Cl)cc(Cl)c3)[C@H](c3ccc(F)cc3)C2)c1` (relative stereo) [Example 292, 3,5-dichloro-N-({trans-4-(4-fluorophenyl)-1-[(1-methyl-1H-imidazol-4-yl)sulfonyl]pyrrolidin-3-yl}methyl)aniline], the Ki is ≤ 1000 nM. In the case of `CS(=O)(=O)N1C[C@@H](NC(=O)c2cccc(C(F)(F)F)c2Cl)[C@H](c2cc(F)c(F)cc2F)C1` (relative stereo) [Example 4, 2-chloro-N-[trans-1-(methylsulfonyl)-4-(2,4,5-trifluorophenyl)pyrrolidin-3-yl]-3-(trifluoromethyl)benzamide], the Ki was ≥ 10000 nM.

Regarding `Cn1cnc(S(=O)(=O)N2C[C@@H](Nc3cccc(Cl)c3)[C@H](C3CC3)C2)c1` (relative stereo) [Example 338, Trans-N-(3-chlorophenyl)-4-cyclopropyl-1-[(1-methyl-1H-imidazol-4-yl)sulfonyl]pyrrolidin-3-amine], the Ki was ≤ 1000 nM. With `Cn1cnc(S(=O)(=O)N2C[C@H](NC(=O)NCc3ccccc3Cl)[C@@H](c3ccc(F)cc3)C2)c1` [Example 705, 1-(2-chlorobenzyl)-3-{(3R,4S)-4-(4-fluorophenyl)-1-[(1-methyl-1H-imidazol-4-yl)sulfonyl]pyrrolidin-3-yl}urea], the Ki is ≤ 1000 nM. As for `Cn1cnc(S(=O)(=O)N2C[C@H](NCc3cc4cccnc4s3)[C@@H](c3ccccc3)C2)c1` [Example 442, (3R,4S)-1-[(1-methyl-1H-imidazol-4-yl)sulfonyl]-4-phenyl-N-(thieno[2,3-b]pyridin-2-ylmethyl)pyrrolidin-3-amine], the Ki was ≤ 1000 nM. Same read-out and setting: in the case of `Cn1cnc(S(=O)(=O)N2C[C@H](NCC3CCC(F)(F)CC3)[C@@H](c3ccccc3)C2)c1` [Example 554, (3R,4S)-N-[(4,4-difluorocyclohexyl)methyl]-1-[(1-methyl-1H-imidazol-4-yl)sulfonyl]-4-phenylpyrrolidin-3-amine] it was ≤ 1000 nM; in that of `CC(C)c1csc(CN[C@H]2CN(S(=O)(=O)c3cn(C)cn3)C[C@@H]2c2ccccc2)n1` [Example 556, (3R,4S)-1-[(1-methyl-1H-imidazol-4-yl)sulfonyl]-4-phenyl-N-{[4-(propan-2-yl)-1,3-thiazol-2-yl]methyl}pyrrolidin-3-amine], ≤ 10000 nM.

On to `Cc1cc(CN[C@H]2CN(S(=O)(=O)c3cn(C)cn3)C[C@@H]2c2ccccc2)sc1C` [Example 455, (3R,4S)-N-[(4,5-dimethylthiophen-2-yl)methyl]-1-[(1-methyl-1H-imidazol-4-yl)sulfonyl]-4-phenylpyrrolidin-3-amine], for which the Ki was ≤ 100 nM. With `Cn1cnc(S(=O)(=O)N2C[C@@H](Nc3ccc(Cl)c(C#N)c3)[C@H](c3ccccc3)C2)c1` (relative stereo) [Example 79, 2-chloro-5-({trans-1-[(1-methyl-1H-imidazol-4-yl)sulfonyl]-4-phenylpyrrolidin-3-yl}amino)benzonitrile], the Ki is ≤ 1000 nM. With `Cn1cnc(S(=O)(=O)N2C[C@H](NCc3nc4ccccc4s3)[C@@H](c3ccccc3)C2)c1` [Example 453, (3R,4S)-N-(1,3-benzothiazol-2-ylmethyl)-1-[(1-methyl-1H-imidazol-4-yl)sulfonyl]-4-phenylpyrrolidin-3-amine], the Ki is ≤ 1000 nM.

`Cn1cnc(S(=O)(=O)N2C[C@@H](Nc3ccc4cccnc4c3)[C@H](c3ccccc3)C2)c1` (relative stereo) [Example 228, N-{trans-1-[(1-methyl-1H-imidazol-4-yl)sulfonyl]-4-phenylpyrrolidin-3-yl}quinolin-7-amine]: the Ki is ≤ 10000 nM. As for `Cn1cnc(S(=O)(=O)N2C[C@@H](Nc3ccc(C#N)cc3F)[C@H](c3ccccc3)C2)c1` (relative stereo) [Example 53, 3-fluoro-4-({trans-1-[(1-methyl-1H-imidazol-4-yl)sulfonyl]-4-phenylpyrrolidin-3-yl}amino)benzonitrile], the Ki was ≤ 10000 nM.

For `Cn1cnc(S(=O)(=O)N2C[C@@H]([C@@H]3CCCOC3)[C@H](Nc3cccc(OCc4ccccc4)c3)C2)c1` (mixture of isomers) [Example 794, Trans-N-[3-(benzyloxy)phenyl]-1-[(1-methyl-1H-imidazol-4-yl)sulfonyl]-4-[(3S)-tetrahydro-2H-pyran-3-yl]pyrrolidin-3-amine], the Ki is ≤ 1000 nM. In the case of `Cn1cnc(S(=O)(=O)N2C[C@@H](COc3ccc(Cl)cc3Cl)[C@H](c3ccc(F)cc3)C2)c1` (relative stereo) [Example 246, 4-{[trans-3-[(2,4-dichlorophenoxy)methyl]-4-(4-fluorophenyl)pyrrolidin-1-yl]sulfonyl}-1-methyl-1H-imidazole], the Ki is ≤ 100 nM. `Cn1cnc(S(=O)(=O)N2C[C@H](NCc3cnn4ccccc34)[C@@H](c3ccccc3)C2)c1` [Example 537, (3R,4S)-1-[(1-methyl-1H-imidazol-4-yl)sulfonyl]-4-phenyl-N-(pyrazolo[1,5-a]pyridin-3-ylmethyl)pyrrolidin-3-amine]: the Ki was ≤ 10000 nM. Regarding `Cc1cccc(C(=O)[C@@H]2CN(S(=O)(=O)c3cn(C)cn3)C[C@H]2c2ccc(F)cc2)c1` (relative stereo) [Example 300, {trans-4-(4-fluorophenyl)-1-[(1-methyl-1H-imidazol-4-yl)sulfonyl]pyrrolidin-3-yl}(3-methylphenyl)methanone], the Ki was ≤ 1000 nM.

For the compound `Cn1cnc(S(=O)(=O)N2C[C@@H](CNc3ccc(F)cc3)[C@H](c3ccc(F)cc3)C2)c1` (relative stereo) [Example 367, 4-Fluoro-N-({trans-4-(4-fluorophenyl)-1-[(1-methyl-1H-imidazol-4-yl)sulfonyl]pyrrolidin-3-yl}methyl)aniline], the inhibition constant Ki was ≤ 100 nM. On to `Cn1cnc(S(=O)(=O)N2C[C@@H](NCc3ccccc3F)[C@H](c3ccc(F)cc3)C2)c1` (relative stereo) [Example 263, trans-N-(2-fluorobenzyl)-4-(4-fluorophenyl)-1-[(1-methyl-1H-imidazol-4-yl)sulfonyl]pyrrolidin-3-amine], for which the Ki is ≤ 100 nM. Same read-out and setting: in the case of `CCc1oc2ccccc2c1CN[C@H]1CN(S(=O)(=O)c2cn(C)cn2)C[C@@H]1c1ccccc1` [Example 534, (3R,4S)-N-[(2-ethyl-1-benzofuran-3-yl)methyl]-1-[(1-methyl-1H-imidazol-4-yl)sulfonyl]-4-phenylpyrrolidin-3-amine] it was ≤ 1000 nM; in that of `Cn1cnc(S(=O)(=O)N2C[C@@H](Nc3cccc(Cl)c3)[C@H](C3CCCOC3)C2)c1` (relative stereo) [Example 783, trans -N-(3-chlorophenyl)-1-[(1-methyl-1H-imidazol-4-yl)sulfonyl] -4-(tetrahydro-2H-pyran-3 - yl)pyrrolidin-3-amine], ≤ 1000 nM. Still for that read-out and setting: in the case of `CCCCC(F)(F)CN[C@H]1CN(S(=O)(=O)c2cn(C)cn2)C[C@@H]1c1ccc(F)cc1` [Example 733, (3R,4S)-N-(2,2-difluorohexyl)-4-(4-fluorophenyl)-1-[(1-methyl-1H-imidazol-4-yl)sulfonyl]pyrrolidin-3-amine] it was ≤ 10 nM. Same read-out and setting: in the case of `Cn1cnc(S(=O)(=O)N2C[C@@H](CNc3ccccc3)[C@H](c3ccc(F)cc3)C2)c1` (relative stereo) [Example 290, N-({trans-4-(4-fluorophenyl)-1-[(1-methyl-1H-imidazol-4-yl)sulfonyl]pyrrolidin-3-yl}methyl)aniline] it was ≤ 10000 nM.

Consider `Cn1cnc(S(=O)(=O)N2C[C@@H](Nc3ccc(Cl)c(Cl)c3)[C@H](c3ccccc3)C2)c1` (relative stereo) [Example 218, trans-N-(3,4-dichlorophenyl)-1-[(1-methyl-1H-imidazol-4-yl)sulfonyl]-4-phenylpyrrolidin-3-amine], for which the Ki was ≤ 1000 nM. The same measure, in the same setting: in the case of `Cn1cnc(S(=O)(=O)N2C[C@H](NCC3(C)CCCCC3)[C@@H](c3ccccc3)C2)c1` [Example 467, (3R,4S)-N-[(1-methylcyclohexyl)methyl]-1-[(1-methyl-1H-imidazol-4-yl)sulfonyl]-4-phenylpyrrolidin-3-amine] it was ≤ 1000 nM; in that of `Cn1cnc(S(=O)(=O)N2CC(Nc3cccc(OC(F)(F)F)c3)C(C3CCN(C4CC4)CC3)C2)c1` (stereo not drawn) [Example 678, -4-(1-cyclopropylpiperidin-4-yl)-1-[(1-methyl-1H-imidazol-4-yl)sulfonyl]-N-[3-(trifluoromethoxy)phenyl]pyrrolidin-3-amine], ≤ 1000 nM.

The experiment is the same for the next values; noted with them: radioligand binding, recombinant CHO cell membranes expressing human GlyT1c.
For the compound `Cn1cnc(S(=O)(=O)N2CC(Cc3cc(C(F)(F)F)ccn3)C(c3ccccc3)C2)c1` (stereo not drawn) [Example 817, 2-({1-[(1-methyl-1H-imidazol-4-yl)sulfonyl]-4-phenylpyrrolidin-3-yl}methyl)-4-(trifluoromethyl)pyridine], the Ki is ≤ 1000 nM.
